Laboratory results from patent US20180320217A1, “METHODS FOR SAMPLING AND MEASURING ORAL LAVAGE PROTEINS” (The Procter & Gamble Company, priority 2017, published 2018).
Where a name gives a salt, the structure may show the parent alone.

What was measured:
[1] = tested on: Malate dehydrogenase and diaphorase; experiment: Formation of formazan dyes: Malate dehydrogenase, diaphorase and malate (TABLE 10); assay type: biochemical, pig heart
oral lavage = experiment: Formation of formazan dyes: oral lavage, malate and diaphorase (TABLE 12); assay type: biochemical, human; conditions: oral lavage, malate and diaphorase
[2] = Formation of formazan dyes: NADH and 1-methoxy PMS, absence of malate (TABLE 15); assay type: biochemical; conditions: NADH and 1-methoxy PMS, absence of malate, mean of three experiments
[3] = Formation of formazan dyes: control buffer and 1-Methoxy PMS, absence of malate (TABLE 21); assay type: biochemical; conditions: for Absorbance, formation of formazan dyes (Means): control buffer and 1-Methoxy PMS, absence of malate, mean of three experiments
diaphorase = experiment: Effect of concentrations of tetrazolium salts on formation of formazan dyes (FIGS. 4A-4G); assay type: biochemical; conditions: 15 mM NADH+H, 20 μg diaphorase, pH 7.5; FIGS. 4A to 4G
Description: On the idea that higher concentrations of tetrazolium salts in the assay buffer would likely result in more formazan dyes in the reaction, various concentrations of tetrazolium salts were added to a reaction buffer and the formation of formazan dyes were measured at 0, 30 and 60 minutes. […] The reactions were performed at room temperature. Absorbance was taken at 0, 30 and 60 minutes.

- Formation of formazan dyes, absorbance, Means 0 h ([1]; Malate dehydrogenase, diaphorase and malate, 0 h): 1.72
- Formation of formazan dyes, absorbance, Means 1 h ([1]; Malate dehydrogenase, diaphorase and malate, 1 h): 2.67
- Formation of formazan dyes, absorbance, Means 2 h ([1]; Malate dehydrogenase, diaphorase and malate, 2 h): 2.93
- Formation of formazan dyes, absorbance, Means 3 h ([1]; Malate dehydrogenase, diaphorase and malate, 3 h): 3.12
- Formation of formazan dyes, absorbance, Means 4 h ([1]; Malate dehydrogenase, diaphorase and malate, 4 h): 3.48
- Formation of formazan dyes, absorbance, Means 6 h ([1]; Malate dehydrogenase, diaphorase and malate, 6 h): 3.67
- Formation of formazan dyes, absorbance, Means 8 h ([1]; Malate dehydrogenase, diaphorase and malate, 8 h): 3.73
- Formation of formazan dyes, absorbance, Means 10 h ([1]; Malate dehydrogenase, diaphorase and malate, 10 h): 3.74
- Formation of formazan dyes, absorbance, Means 12 h ([1]; Malate dehydrogenase, diaphorase and malate, 12 h): 3.71
- Formation of formazan dyes, absorbance, Means 0 h (oral lavage; 0 h): 0.68
- Formation of formazan dyes, absorbance, Means 1 h (oral lavage; 1 h): 0.93
- Formation of formazan dyes, absorbance, Means 2 h (oral lavage; 2 h): 1.07
- Formation of formazan dyes, absorbance, Means 3 h (oral lavage; 3 h): 1.14
- Formation of formazan dyes, absorbance, Means 4 h (oral lavage; 4 h): 1.34
- Formation of formazan dyes, absorbance, Means 6 h (oral lavage; 6 h): 1.56
- Formation of formazan dyes, absorbance, Means 8 h (oral lavage; 8 h): 1.84
- Formation of formazan dyes, absorbance, Means 10 h (oral lavage; 10 h): 2.10
- Formation of formazan dyes, absorbance, Means 12 h (oral lavage; 12 h): 2.27
- concentration of tetrazolium salt at which absorbance reached peaks (diaphorase): around 1.5 mM
Compound: Cc1nc(-[n+]2nc(-c3cccc(OCC(=O)O)c3)nn2-c2ccc(S(=O)(=O)[O-])cc2)sc1C [MTS, 3-(4,5-dimethylthiazol-2-yl)-5-(3-carboxymethoxyphenyl)-2-(4-sulfophenyl)-2H-tetrazolium, inner salt]
- conversion to reduced formazan dyes ([1]; malate dehydrogenase, diaphorase and malate (TABLE 10)): converted to reduced formazan dyes in a time-dependent manner
- Absorbance, formation of formazan dyes (Means) ([2]; 0 h): 2.31
- Absorbance, formation of formazan dyes (Means) ([2]; 1 h): 2.55
- Absorbance, formation of formazan dyes (Means) ([2]; 2 h): 2.60
- Absorbance, formation of formazan dyes (Means) ([2]; 3 h): 2.59
- Absorbance, formation of formazan dyes (Means) ([2]; 4 h): 2.63
- Absorbance, formation of formazan dyes (Means) ([2]; 6 h): 2.65
- Absorbance, formation of formazan dyes (Means) ([2]; 8 h): 2.69
- Absorbance, formation of formazan dyes (Means) ([2]; 10 h): 2.67
- Absorbance, formation of formazan dyes (Means) ([2]; 12 h): 2.65
- Absorbance, formation of formazan dyes (Means) ([3]; 0 h): 0.36
- Absorbance, formation of formazan dyes (Means) ([3]; 1 h): 0.42
- Absorbance, formation of formazan dyes (Means) ([3]; 2 h): 0.41
- Absorbance, formation of formazan dyes (Means) ([3]; 3 h): 0.43
- Absorbance, formation of formazan dyes (Means) ([3]; 4 h): 0.43
- Absorbance, formation of formazan dyes (Means) ([3]; 6 h): 0.48
- Absorbance, formation of formazan dyes (Means) ([3]; 8 h): 0.59
- Absorbance, formation of formazan dyes (Means) ([3]; 10 h): 0.63
- Absorbance, formation of formazan dyes (Means) ([3]; 12 h): 0.66
- conversion into colored formazan dyes in assay buffer containing 1-methoxy PMS ([3]; control buffer, absence of malate (TABLE 21) or presence of malate (TABLE 22)): slowly catalyze the conversion of tetrazolium salts into colored formazan dyes
